Test results taken from ChEMBL document CHEMBL3885861, “Open TG-GATES”.

Species on record: Rattus norvegicus
Test: Open TG-GATES - Regimen: Single
Format: toxicity, organism-based, Sprague-Dawley
Parameters: regimen Single, gender Male, age 6 weeks
Details: in vivo, po, 300 mg/kg, route gavage, dose level High; for APTT / Bas / Eos / Fbg / Hb / Ht / Lym / MCH / MCHC / MCV / Mono / Neu / PT / Plat / RBC / Ret / WBC: tissue Blood; for KIDNEY_L / KIDNEY_R / KIDNEY_TOTAL: tissue Kidney; for LIVER: tissue Liver; for A/G / ALP / ALT / AST / BUN / CRE / Ca / Cl / DBIL / GLC / IP / K / LDH / Na / PL / RALB / TBIL / TC / TG / TP / gamma-GTP: tissue Plasma

Brc1ccccc1 [BROMOBENZENE] was tested, and the TERMINAL_BW (3 h) was 190.3 g, the APTT (3 h) was 15.8 s and the Bas (3 h) was 0%. The Eos (3 h) was 0.8%, the Fbg (3 h) was 289.8 mg/dL and the Hb (3 h) was 14.1 g/dL. The Ht (3 h) was 41.4%, the Lym (3 h) was 76.6% and the MCH (3 h) was 21.7 pg. It also gave an MCHC (3 h) of 33.9%, an MCV (3 h) of 64 fL and a Mono (3 h) of 3.2%. The Neu (3 h) was 19.2%, the PT (3 h) was 12 s and the Plat (3 h) was 115.3 x10_4/uL. The RBC (3 h) was 648.4 x10_4/ul, the Ret (3 h) was 9.4% and the WBC (3 h) was 67.3 x10_2/uL. The KIDNEY_L (3 h) was 0.8 g, the KIDNEY_R (3 h) was 0.8 g and the KIDNEY_TOTAL (3 h) was 1.7 g. It also gave an LIVER (3 h) of 7.6 g, an A/G (3 h) of 0.9 and an ALP (3 h) of 1696 IU/L. For the same compound, the ALT (3 h) was 48.2 IU/L, the AST (3 h) was 81.6 IU/L and the BUN (3 h) was 8 mg/dL. It also gave a CRE (3 h) of 0.1 mg/dL, a Ca (3 h) of 11 mg/dL and a Cl (3 h) of 105.2 meq/L. It also gave a DBIL (3 h) of 0.01 mg/dL, a GLC (3 h) of 191.6 mg/dL and an IP (3 h) of 10.9 mg/dL. The K (3 h) was 3.6 meq/L, the LDH (3 h) was 78.2 IU/L and the Na (3 h) was 141.6 meq/L. It also gave a PL (3 h) of 152.2 mg/dL, an RALB (3 h) of 2.7 g/dL and a TBIL (3 h) of 0.044 mg/dL. It also gave a TC (3 h) of 82.8 mg/dL, a TG (3 h) of 55.8 mg/dL and a TP (3 h) of 5.7 g/dL. The gamma-GTP (3 h) was 1.4 IU/L, the TERMINAL_BW (6 h) was 192 g and the APTT (6 h) was 15.8 s. The Bas (6 h) was 0%, the Eos (6 h) was 0.6% and the Fbg (6 h) was 293 mg/dL. The Hb (6 h) was 13.9 g/dL, the Ht (6 h) was 41.8% and the Lym (6 h) was 73%. The MCH (6 h) was 21 pg, the MCHC (6 h) was 33.3% and the MCV (6 h) was 63 fL. The Mono (6 h) was 2.2%, the Neu (6 h) was 23.8% and the PT (6 h) was 12.3 s. For the same compound, the Plat (6 h) was 107.3 x10_4/uL, the RBC (6 h) was 663.8 x10_4/ul and the Ret (6 h) was 9.1%. It also gave a WBC (6 h) of 56.8 x10_2/uL, a KIDNEY_L (6 h) of 0.8 g and a KIDNEY_R (6 h) of 0.8 g. For the same compound, the KIDNEY_TOTAL (6 h) was 1.6 g, the LIVER (6 h) was 7.4 g and the A/G (6 h) was 0.9. For the same compound, the ALP (6 h) was 1585.6 IU/L, the ALT (6 h) was 40.6 IU/L and the AST (6 h) was 72.2 IU/L. It also gave a BUN (6 h) of 9.2 mg/dL, a CRE (6 h) of 0.1 mg/dL and a Ca (6 h) of 10.9 mg/dL. The Cl (6 h) was 103.4 meq/L, the DBIL (6 h) was 0.008 mg/dL and the GLC (6 h) was 207.6 mg/dL. The IP (6 h) was 11.1 mg/dL, the K (6 h) was 3.8 meq/L and the LDH (6 h) was 80 IU/L. For the same compound, the Na (6 h) was 140.6 meq/L, the PL (6 h) was 156.8 mg/dL and the RALB (6 h) was 2.7 g/dL. For the same compound, the TBIL (6 h) was 0.04 mg/dL, the TC (6 h) was 93.2 mg/dL and the TG (6 h) was 29.4 mg/dL. It also gave a TP (6 h) of 5.7 g/dL, a gamma-GTP (6 h) of 1.4 IU/L and a TERMINAL_BW (9 h) of 190.5 g. For the same compound, the APTT (9 h) was 16.2 s, the Bas (9 h) was 0% and the Eos (9 h) was 0.6%. It also gave a Fbg (9 h) of 274.4 mg/dL, a Hb (9 h) of 14.2 g/dL and a Ht (9 h) of 41.9%. It also gave a Lym (9 h) of 79%, an MCH (9 h) of 21.5 pg and an MCHC (9 h) of 33.9%. The MCV (9 h) was 63.4 fL, the Mono (9 h) was 2.4% and the Neu (9 h) was 17.6%. It also gave a PT (9 h) of 12.2 s, a Plat (9 h) of 111.6 x10_4/uL and an RBC (9 h) of 660.8 x10_4/ul. For the same compound, the Ret (9 h) was 8.9%, the WBC (9 h) was 67.7 x10_2/uL and the KIDNEY_L (9 h) was 0.8 g. For the same compound, the KIDNEY_R (9 h) was 0.8 g, the KIDNEY_TOTAL (9 h) was 1.6 g and the LIVER (9 h) was 6.5 g. It also gave an A/G (9 h) of 0.9, an ALP (9 h) of 1518.8 IU/L and an ALT (9 h) of 40.8 IU/L. It also gave an AST (9 h) of 75.6 IU/L, a BUN (9 h) of 12 mg/dL and a CRE (9 h) of 0.2 mg/dL. The Ca (9 h) was 10.6 mg/dL, the Cl (9 h) was 103.6 meq/L and the DBIL (9 h) was 0.008 mg/dL. For the same compound, the GLC (9 h) was 184.8 mg/dL, the IP (9 h) was 11 mg/dL and the K (9 h) was 3.7 meq/L. For the same compound, the LDH (9 h) was 95.6 IU/L, the Na (9 h) was 140.6 meq/L and the PL (9 h) was 141.4 mg/dL. The RALB (9 h) was 2.6 g/dL, the TBIL (9 h) was 0.052 mg/dL and the TC (9 h) was 86.6 mg/dL. The TG (9 h) was 23.8 mg/dL, the TP (9 h) was 5.6 g/dL and the gamma-GTP (9 h) was 1.8 IU/L. The TERMINAL_BW (24 h) was 185.8 g, the APTT (24 h) was 18.7 s and the Bas (24 h) was 0%. The Eos (24 h) was 0.4%, the Fbg (24 h) was 204.8 mg/dL and the Hb (24 h) was 13.9 g/dL. For the same compound, the Ht (24 h) was 40.9%, the Lym (24 h) was 71.6% and the MCH (24 h) was 21.5 pg. The MCHC (24 h) was 34%, the MCV (24 h) was 63.2 fL and the Mono (24 h) was 1.8%. For the same compound, the Neu (24 h) was 25.8%, the PT (24 h) was 15.8 s and the Plat (24 h) was 111.5 x10_4/uL. For the same compound, the RBC (24 h) was 647.2 x10_4/ul, the Ret (24 h) was 7.3% and the WBC (24 h) was 73.2 x10_2/uL. For the same compound, the KIDNEY_L (24 h) was 0.8 g, the KIDNEY_R (24 h) was 0.8 g and the KIDNEY_TOTAL (24 h) was 1.7 g. It also gave an LIVER (24 h) of 8.6 g, an A/G (24 h) of 0.9 and an ALP (24 h) of 2477 IU/L. The ALT (24 h) was 113.6 IU/L, the AST (24 h) was 481 IU/L and the BUN (24 h) was 14.6 mg/dL. The CRE (24 h) was 0.2 mg/dL, the Ca (24 h) was 10.2 mg/dL and the Cl (24 h) was 106.8 meq/L. The DBIL (24 h) was 0.024 mg/dL, the GLC (24 h) was 166.8 mg/dL and the IP (24 h) was 8.3 mg/dL. It also gave a K (24 h) of 4.1 meq/L, an LDH (24 h) of 784.6 IU/L and a Na (24 h) of 142 meq/L. The PL (24 h) was 130.8 mg/dL, the RALB (24 h) was 2.6 g/dL and the TBIL (24 h) was 0.074 mg/dL. It also gave a TC (24 h) of 85.6 mg/dL, a TG (24 h) of 67.4 mg/dL and a TP (24 h) of 5.5 g/dL. The gamma-GTP (24 h) was 1.4 IU/L.
